# System: CHO cells expressing a trap protein (receptor-Fc fusion protein, VEGF-trap)
# Details: 36.6 mg/L putrescine; VEGF-trap from CHO cells
smiles,measurement,value
"NCCCCN [putrescine, 1,4-Diaminobutane]",Al N-Glycan relative amount (% area under the curve),9.0 % area under the curve

# — patent US20190010531A1, “CELL CULTURE PROCESS FOR MAKING A GLYCOPROTEIN” (Regeneron Pharmaceuticals, Inc., priority 2017, published 2019)
